Laboratory results taken from US10344026B2, “Compositions and methods of targeting mutant K-ras” (NANTBIO, INC., priority 2017, dated 2019).

Assays:
Type in all cases: cell-based
wild type K-Ras = biological target: T1, wild type K-Ras (Homo sapiens, UniProt P01116); assay: G-LISA Ras activation, 293H cells transfected with Ras wild-type, EGF stimulated; conditions: compound 1 hour, then 100 ng/ml EGF 2 minutes
T1 construct: expressed in transfected cells; host or cells: 293H cells
Experimental: (§1) 293H cells were seeded in 6-wells at 0.6×10^6 cells per well and transfected next day with 5 μg of Ras wild-type, or G12C, G12D or G12V mutant DNA plasmid vector using transfection reagent Lipofectamine 3000. Next day cells were treated with 3.125-25 μM of Ras compounds for 1 hour. Wild-type transfected cells were subsequently treated with 100 ng/ml EGF for 2 minutes. Cells were washed once in ice-cold PBS, lysed in complete lysis buffer on ice, and processed by G-LISA according to Cytoskeleton protocol.

[1] = tested on: Ishikawa (K-Ras wild type cell line); assay: Viability assay (CellTiterBlue, 72 hr) Ishikawa; conditions: Homo sapiens, GI50, CellTiterBlue, Ishikawa K-Ras wild-type
Experimental: (§2) Viability assays were performed on exemplary compounds and Table 2 below lists exemplary results for selected compounds tested on K-Ras wild type cell lines (Ishikawa, U87-MG, HCC827, and A375) and various K-Ras mutant cell lines (Panc1-G12D; Panc10.05-G12D; HCT116-G31D). Results are expressed in μM and corresponding structures are shown in FIGS. 2A-2G and Examples 1-152, above.
(§3) Cells are counted and seeded at 1000 cells/36 ul medium/well into 384-well microplates. Cells are returned to 37° C. CO2 incubator for 18 hr. Drug is made as 200× in DMSO and diluted into medium to 10×. To each well is added 4 ul 10× drug, and plates are returned to the incubator. Final assay DMSO concentration is 0.5%. After 72 hr, 8 ul CellTiterBlue (Promega) is added to each well. After 3 hr, fluorescence (Ex550/Em590) is determined on the Victor Plate Reader (Perkin Elmer). Assay range is determined by DMSO control (100% viability) and 100 uM tamoxifen (0% viability). GI50 values are calculated using Graphpad Prism.

HCT116-G31D = assay: Viability assay (CellTiterBlue, 72 hr) HCT116; conditions: Homo sapiens, HCT-116, GI50, CellTiterBlue, HCT116 K-Ras G13D, read-out: 72 hr Cell Viability HCT116 (G13D)
Experimental: as §2, §3

[2] = tested on: U87-MG (K-Ras wild type cell line); assay: Viability assay (CellTiterBlue, 72 hr) U87-MG; conditions: Homo sapiens, U-87 MG, GI50, CellTiterBlue, U87-MG K-Ras wild-type
Experimental: as §2, §3

[3] = tested on: HCC827 (K-Ras wild type cell line); assay: Viability assay (CellTiterBlue, 72 hr) HCC827; conditions: Homo sapiens, GI50, CellTiterBlue, HCC827 K-Ras wild-type
Experimental: as §2, §3

Panc1-G12D = assay: Viability assay (CellTiterBlue, 72 hr) Panc1; conditions: Homo sapiens, PANC-1, GI50, CellTiterBlue, Panc1 K-Ras G12D, read-out: 72 hr Cell Viability Panc1 (G12D)
Experimental: as §2, §3

K-Ras G12D = biological target: T2, K-Ras G12D (Homo sapiens, UniProt P01116, G12D); assay: G-LISA Ras activation, 293H cells transfected with G12D mutant; conditions: compound 1 hour
T2 construct: expressed in transfected cells; host or cells: 293H cells
T2 sequence (P01116 whole entry G12D): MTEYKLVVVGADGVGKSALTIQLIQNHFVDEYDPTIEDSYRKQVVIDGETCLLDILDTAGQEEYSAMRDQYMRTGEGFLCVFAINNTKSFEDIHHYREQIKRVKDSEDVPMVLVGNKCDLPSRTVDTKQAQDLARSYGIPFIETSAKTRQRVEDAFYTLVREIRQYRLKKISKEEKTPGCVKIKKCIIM
Experimental: as §1

Panc10.05-G12D = assay: Viability assay (CellTiterBlue, 72 hr) Panc10.05; conditions: Homo sapiens, Panc1005, GI50, CellTiterBlue, Panc10.05 K-Ras G12D, read-out: 72 hr Cell Viability Panc10.05 (G12D)
Experimental: as §2, §3

[4] = tested on: phospho-ERK in Panc10.05 (G12D); assay: In-Cell Western phospho-ERK, Panc10.05; conditions: Homo sapiens, Panc1005, 1 h; Panc10.05, one hour treatment; read-out: In-Cell Western Panc10.05 (G12D) Erk (P)
Experimental: (§4) In-cell phosphorylation assays for Erk and Akt were performed on several of the compounds and exemplary results are shown in Table 3 below using HCC827 and A375 cell lines for wild type K-Ras and Panc1 and Panc10.05 cell lines for G12D K-Ras mutants. Results are expressed in μM and corresponding structures are shown in FIGS. 2A-2G and Examples 1-152, above.
(§5) Cells are seeded in complete medium into black sided, clear-bottom 384-well microplates at 3000 cells/[…]/well. Plates are returned to 37° C. CO2 incubator for 18 hr. Drug is made as 200× in DMSO and diluted into medium to 10×. To each well is added 4 ul 10× test article or controls, and plates are returned to the incubator. Final assay DMSO concentration is 0.5%. After one hour, cells are fixed in formaldehyde, rinsed & permeabilized with triton X-100, and blocked with BSA/Goat serum blocking solution. Primary phospho-Akt and phospho-ERK antibodies are added and plates are incubated overnight at 4° C. Plates are rinsed with Tween-20 wash buffer and secondary antibody (Goat anti-rabbit, Thermofisher) is added. After 2 hours, plates are rinsed in Tween-20 wash buffer, and then PBS. Plates are imaged on the Celigo (Nexcelom) and cellular fluorescence is quantitated. Full inhibition of phospho-Akt is achieved with 1 uM BEZ235 (Sellekchem), while full inhibition of phospho-ERK is achieved with 1 uM MEK Inhibitor II Calbiochem). EC50 values are calculated using Graphpad Prism.

[5] = tested on: phospho-Akt in Panc1 (G12D); assay: In-Cell Western phospho-Akt, Panc1; conditions: Homo sapiens, PANC-1, 1 h; Panc1, one hour treatment; read-out: In-Cell Western Panc1 (G12D) Akt (P)
Experimental: as §4, §5

[6] = tested on: phospho-ERK in Panc1 (G12D); assay: In-Cell Western phospho-ERK, Panc1; conditions: Homo sapiens, PANC-1, 1 h; Panc1, one hour treatment; read-out: In-Cell Western Panc1 (G12D) Erk (P)
Experimental: as §4, §5

T1 sequence (P01116 whole entry): as the sequence (P01116 whole entry G12D) above, with D12G counted along it

IC50 (wild type K-Ras) [µM]	IC50 (HCT116-G31D) [µM]	IC50 [2] [µM]	IC50 [3] [µM]	IC50 (Panc1-G12D) [µM]	IC50 (K-Ras G12D) [µM]	IC50 (Panc10.05-G12D) [µM]	SMILES	IC50 [1] [µM]	EC50 [4] [nM]	EC50 [5] [µM]	EC50 [6] [nM]
> 25	5	5	23	4	22	2	Cc1nc(C2CCOC2)oc1C(=O)Nc1nc(-c2ccc3c(c2)CCC(=O)N3)cs1 (stereo not shown) [Compound 10, 4-methyl-N-(4-(2-oxo-1,2,3,4-tetrahydroquinolin-6-yl)thiazol-2-yl)-2-(tetrahydrofuran-3-yl)oxazole-5-carboxamide]	2	–	–	–
10.7	2	2	7	2	6.6	0.774	CCn1cc(C(=O)Nc2nc(-c3ccc4c(c3)CCC(=O)N4)cs2)c(C)n1 [Compound 25, 1-ethyl-3-methyl-N-(4-(2-oxo-1,2,3,4-tetrahydroquinolin-6-yl)thiazol-2-yl)-1H-pyrazole-4-carboxamide]	1.1	–	–	–
> 25	1	1.4	6	2	10.6	1.1	Cn1nc2ccccc2c1C(=O)Nc1nc(-c2ccc3c(c2)CCC(=O)N3)cs1 [Compound 26, 2-methyl-N-(4-(2-oxo-1,2,3,4-tetrahydroquinolin-6-yl)thiazol-2-yl)-2H-indazole-3-carboxamide]	< 0.8	–	–	–
18.8	3	3	12	7	19.2	0.733	Cc1nc(C)c(C(=O)Nc2nc(-c3ccc4c(c3)CCC(=O)N4Cc3cccc4c3OCO4)cs2)o1 [Compound 73, N-(4-(1-(benzo[d][1,3]dioxol-4-ylmethyl)-2-oxo-1,2,3,4-tetrahydroquinolin-6-yl)thiazol-2-yl)-2,4-dimethyloxazole-5-carboxamide]	4	–	–	–
12.6	4	2	17	5	13.9	0.679	COc1cccc(CN2C(=O)CCc3cc(-c4csc(NC(=O)c5oc(C)nc5C)n4)ccc32)c1 [Compound 76, N-(4-(1-(3-methoxybenzyl)-2-oxo-1,2,3,4-tetrahydroquinolin-6-yl)thiazol-2-yl)-2,4-dimethyloxazole-5-carboxamide]	5	–	–	–
> 25	10	13	> 25	> 25	24.6	> 25	Cc1nc(C)c(C(=O)Nc2nc(-c3ccc4c(c3)CCC(=O)N4Cc3cncc4ccccc34)cs2)o1 [Compound 82, N-(4-(1-(isoquinolin-4-ylmethyl)-2-oxo-1,2,3,4-tetrahydroquinolin-6-yl)thiazol-2-yl)-2,4-dimethyloxazole-5-carboxamide]	4	–	–	–
19.9	4	4	3	7	4.9	7	Cc1nc(C2CCOC2)sc1C(=O)Nc1nc(-c2ccc3c(c2)CCC(=O)N3Cc2cccnc2)cs1 (stereo not shown) [Compound 84, 4-methyl-N-(4-(2-oxo-1-(pyridin-3-ylmethyl)-1,2,3,4-tetrahydroquinolin-6-yl)thiazol-2-yl)-2-(tetrahydrofuran-3-yl)thiazole-5-carboxamide]	–	–	–	–
23.4	4	5	5	8	7.6	6	Cc1nc(C2CCOC2)oc1C(=O)Nc1nc(-c2ccc3c(c2)CCC(=O)N3Cc2cccnc2)cs1 (stereo not shown) [Compound 85, 4-methyl-N-(4-(2-oxo-1-(pyridin-3-ylmethyl)-1,2,3,4-tetrahydroquinolin-6-yl)thiazol-2-yl)-2-(tetrahydrofuran-3-yl)oxazole-5-carboxamide]	–	–	–	–
16.7	2	2	2	5	6.1	5	Cc1nc(C)c(C(=O)Nc2nc(-c3ccc4c(c3)CCC(=O)N4CC3CCCN(C(=O)OC(C)(C)C)C3)cs2)o1 (stereo not shown) [Compound 86, tert-butyl 3-((6-(2-(2,4-dimethyloxazole-5-carboxamido)thiazol-4-yl)-2-oxo-3,4-dihydroquinolin-1(2H)-yl)methyl)piperidine-1-carboxylate]	–	–	–	–
16.6	3	4	4	10	14.2	8	Cc1nc(C)c(C(=O)Nc2nc(-c3ccc4c(c3)CCC(=O)N4Cc3cccc(N)c3)cs2)o1 [Compound 90, N-(4-(1-(3-aminobenzyl)-2-oxo-1,2,3,4-tetrahydroquinolin-6-yl)thiazol-2-yl)-2,4-dimethyloxazole-5-carboxamide]	–	–	–	–

SMILES	IC50 (wild type K-Ras) [µM]	IC50 (HCT116-G31D) [µM]	IC50 [2] [µM]	IC50 [3] [µM]	IC50 (Panc1-G12D) [µM]	IC50 (K-Ras G12D) [µM]	IC50 (Panc10.05-G12D) [µM]	IC50 [1] [µM]	EC50 [4] [nM]	EC50 [5] [µM]	EC50 [6] [nM]
CCc1nc(C)c(C(=O)Nc2nc(-c3ccc4c(c3)CCC(=O)N4Cc3ccccc3)cs2)o1 [Compound 59, N-(4-(1-benzyl-2-oxo-1,2,3,4-tetrahydroquinolin-6-yl)thiazol-2-yl)-2-ethyl-4-methyloxazole-5-carboxamide]	6.5	6	10	–	2	5.8	11	4	3000	6	3000
Cc1nc(C)c(C(=O)Nc2nc(-c3ccc4c(c3)CCC(=O)N4Cc3ccccc3)cs2)o1 [Compound 60, N-(4-(1-benzyl-2-oxo-1,2,3,4-tetrahydroquinolin-6-yl)thiazol-2-yl)-2,4-dimethyloxazole-5-carboxamide]	8.6	7	14	–	2	7.4	13	6	3000	6	4000
Cc1nc(C2CC2)oc1C(=O)Nc1nc(-c2ccc3c(c2)CCC(=O)N3CCc2ccccc2)cs1 [Compound 61, 2-cyclopropyl-4-methyl-N-(4-(2-oxo-1-phenethyl-1,2,3,4-tetrahydroquinolin-6-yl)thiazol-2-yl)oxazole-5-carboxamide]	8.5	3	1.3	–	1.6	5.1	0.87	2.1	2000	2	528
